Series [1] deals with KMS-12-PE cells, Parental. Put plainly: CellTiter-Glo cell viability, KMS-12-PE parental cells. In kind it is cell-based. Conditions: 3 independent experiments in duplicate. (In general: In ATP-based viability assays light output follows the ATP content of the culture.)
The target in series [2] is BCL-2 F104L. Conditions: listed as Ven, cited from earlier work.
Series [3] has as its target BCL-2 WT. Conditions: competition vs BIMBH3 SPR surface, mean ± SD, n=3, previously reported, listed as Ven; cited from earlier work.
In series [4] the test system is BCL-2 G101V. Conditions: G101V relative to WT; cited from earlier work.
A further series concerns the target BCL-2 F104C (Homo sapiens, UniProt P10415, F104C). Nature of the series: SPR direct binding to immobilised BH3 peptides (kinetic fit), BCL-2 F104C. The following applies: for Kd: BCL-2 F104C. The procedure:
(§1) SPR experiments were performed as previously described. […] The lowest concentrations used in direct binding experiments were 1 nM for BIAcore 4000 and 0.1 nM for BIAcore S200 instruments, concentrations below these were below the sensitivity thresholds for the instruments. […] Direct binding experiments were fitted to a 1:1 binding site kinetic model, fitting on and off rates, in BIAevaluation software. For competition experiments steady-state responses were determined in BIAevaluation software according to the software defaults in affinity evaluation mode averaging responses for 5 sec. […] All affinity measurements were performed in at least two independent experiments using independent protein preparations.
(§2) Raw data (coloured curves) were fitted (black curves) to a 1 site specific kinetic model to determine on and off rates and the equilibrium binding constant KD.
(§3) The BCL-2 mutant proteins were diluted in a 2-fold dilution series, concentration ranges for curves are indicated. All experiments shown were performed on a BIAcore 4000, with the exception of (a) which was performed on a BIAcore S200.
(§4) (1 picture or pasted object on this page, not shown here)

Series [5] has as its target BCL-2 G101V. The following applies: cited from earlier work.
Series [6] has as its target BCL-2 WT. The following applies: cited from earlier work.
Series [7] deals with BCL-2 F104L. Conditions: cited from earlier work.
For series [8], the target named is BCL-2 G101V/E152A double mutant (Homo sapiens, UniProt P10415, E152A/G101V). Put plainly: SPR direct binding to immobilised BH3 peptides (kinetic fit), BCL-2 G101V/E152A double mutant. The procedure:
as §1, §2, §3, §4

The target in the next series is BCL-2 E152A (Homo sapiens, UniProt P10415, E152A). Put plainly: SPR direct binding to immobilised BH3 peptides (kinetic fit), BCL-2 E152A. The procedure: as §1, §2, §3, §4
Chain of BCL-2 E152A (P10415 with tags, fused parts or gaps E152A): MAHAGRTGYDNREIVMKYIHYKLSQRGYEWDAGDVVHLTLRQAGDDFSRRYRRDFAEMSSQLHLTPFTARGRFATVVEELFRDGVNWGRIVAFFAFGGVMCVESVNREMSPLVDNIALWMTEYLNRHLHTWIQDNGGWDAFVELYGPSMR
The mark [9] stands for this setting: BCL-2 F104C binding BAXBH3, 1:1 kinetic fit, each independent experiment.
Where [10] appears, read: read-out: BAXBH3 KD (mean), direct binding, kinetic fit, mean ± SD, n ≥ 2.
[11] abbreviates: read-out: BAXBH3 KD (mean), direct binding, kinetic fit, mean ± SD, n ≥ 2, previously reported.
Setting [12] is: read-out: BAXBH3 KD, single independent experiments, independent experiments 1-3, previously reported.

Values joined by “and” are separate entries in the source; they are usually repeats but may differ in a detail not shown here. Identical values can stand only once. Like-named read-outs stand apart in the source and are kept apart here. Where no end group is shown, it is not given here.

Chain of BCL-2 F104C (P10415 with tags, fused parts or gaps F104C): as the sequence (P10415 with tags, fused parts or gaps E152A) above, with F47C, A95E counted along it
Chain of BCL-2 G101V/E152A double mutant (P10415 with tags, fused parts or gaps G101V/E152A): as the sequence (P10415 with tags, fused parts or gaps E152A) above, with G44V counted along it

As to `O=C(c1cc(-c2cc3c(cc2C(=O)N2Cc4ccccc4C[C@H]2CN2CCOCC2)OCO3)n2c1CCCC2)N(c1ccccc1)c1ccc(O)cc1` [Servier BCL2i], the “Raw data values in Figure 4a (cell viability)” value in [1] (Servier BCL2i concentration 0.002441 μM, 0.002441 µM) is 91.4402 and 90.8859 and 86.2314 and 89.8168 and 85.5276 and 83.3911; in series [1] (Servier BCL2i concentration 0.019531 μM, 0.019531 µM), 79.2854 and 83.3303 and 62.6836 and 66.1433 and 63.9237 and 63.1413; in series [1] (Servier BCL2i concentration 0.15625 μM, 0.15625 µM) it was 41.8118 and 47.4883 and 34.039 and 38.7009 and 36.6962 and 37.7057; in series [1] (Servier BCL2i concentration 10 μM, 10 µM), 0.8691 and 0.8133 and 1.2479 and 1.255 and 1.1789 and 1.099.

In general, Ki refers to the equilibrium dissociation constant of an inhibitor or competing ligand from its target. As for `CC1(C)CCC(CN2CCN(c3ccc(C(=O)NS(=O)(=O)c4ccc(NCC5CCOCC5)c([N+](=O)[O-])c4)c(Oc4cnc5[nH]ccc5c4)c3)CC2)=C(c2ccc(Cl)cc2)C1` [venetoclax], the Ki at BCL-2 F104L [2] (competition vs BIMBH3 SPR surface, mean ± SD, n=3, previously reported, read-out: Ven KI (mean)) was 0.46 nM and 0.456 nM; on BCL-2 F104L [2] (independent experiments 1-3, previously reported, read-out: Ven KI, single independent experiments), 0.358 nM and 0.584 nM and 0.425 nM; at BCL-2 WT [3], 0.018 nM and 0.0181 nM. The “reduction of affinity of the drug for BCL-2 by the G101V mutation” value with BCL-2 G101V [4] is on record as around 180 fold.

As usually defined, the Kd is the constant that tells how readily two partners part at equilibrium. With “BAXBH3: biotinylated BAXBH3 peptide ADASTKKLSECLKRIGDELDSNMELQRMIAA immobilised on SPR sensor chip (also: biotinylated, place not given here)”, the ka with BCL-2 F104C (setting [9]) is 1.67e+06 M⁻¹ s⁻¹ and 2e+06 M⁻¹ s⁻¹ and 2.06e+06 M⁻¹ s⁻¹. In the series with BCL-2 F104C (setting [9]), the kd is 0.00709 s⁻¹ and 0.00791 s⁻¹ and 0.0079 s⁻¹. Also, the Kd with BCL-2 F104C (setting [10]) is 4 nM and 4.02 nM; with BCL-2 F104C (read-out: BAXBH3 KD, single independent experiments, independent experiments 1-3), 4.25 nM and 3.96 nM and 3.84 nM; on BCL-2 G101V [5] (setting [11]) it was 12 nM and 11.7 nM; at BCL-2 G101V [5] (setting [12]), 9.91 nM and 12.9 nM and 12.2 nM; on BCL-2 WT [6] (setting [11]), 1.4 nM and 1.37 nM; at BCL-2 WT [6] (setting [12]) it was 1.6 nM and 1.14 nM and 1.36 nM. In addition, the Kd at BCL-2 F104L [7] (setting [11]) was 6.1 nM and 6.08 nM; on BCL-2 F104L [7] (setting [12]), 7.24 nM and 5.46 nM and 5.55 nM; in series [8] (read-out: BAXBH3 KD (mean), BCL-2 G101V/E152A, direct binding, kinetic fit, mean ± SD, n ≥ 2) it was 5.5 nM and 5.51 nM; in series [8] (read-out: BAXBH3 KD, single independent experiments, BCL-2 G101V, E152A (DM), independent experiments 1-2), 5.7 nM and 5.31 nM; with BCL-2 E152A (setting [10]), 3.6 nM and 3.55 nM; with BCL-2 E152A (read-out: BAXBH3 KD, single independent experiments, independent experiments 1-2), 4.18 nM and 2.93 nM.

Source of the values: PMC6547681 (Nature Communications, 2019).
